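These data come from cells grown in 96-well plates and exposed to compound for 48 hours at five concentrations. The concentration for 50% growth inhibition is given as GI50. TGI marks complete inhibition of growth.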

Some test systems named below: HOP-62 NSCLC; SK-OV-3 ovarian; NCI-H460 lung; TK-10 renal; A498 renal; A549 NSCLC.
Common to all, as to test: inhibition of tumour cell growth, NCI panel, 48 h

With `C=C(C=O)[C@@H]1CC[C@]2(COC(C)=O)CC[C@]3(C)C(CC[C@@H]4[C@@]5(C)CC[C@H](OC(C)=O)C(C)(C)[C@@H]5CC[C@]43C)[C@@H]12` (some centres not stated), the GI50 in the test on HOP-62 NSCLC, in the test on SK-OV-3 ovarian, in the test on NCI-H460 lung, in the test on TK-10 renal, in the test with A498 renal and in the test on A549 NSCLC was more than 100 µM each time. The TGI in the test with HOP-62 NSCLC, in the test with SK-OV-3 ovarian, in the test on NCI-H460 lung, in the test on TK-10 renal, in the test with A498 renal and with A549 NSCLC was more than 100 µM throughout.

(Values after PubChem BioAssay (NCI).)
